# Laboratory results published in patent publication US9145351B2, “Azole derivatives, methods for producing the same, intermediate thereof, agro-horticultural agents” (KUREHA CORPORATION, priority 2009, dated 2015).
# Read-outs that look alike come from different tables or passages of the source.
# Tests used:
# Type in all cases: cell-based
# [1] = tested on: Phaeosphaeria nodorum; assay: Plate medium fungicidal assay, wheat Septoria nodorum blotch P.n (Experimental Example 5); details: for inhibition at 5 µg/mL / inhibition at 50 µg/mL: Parastagonospora nodorum
# In short: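 Compound in DMSO mixed into PDA plate medium at 50 mg/L and 5 mg/L; 4 mm mycelial plug of pre-cultured fungus inoculated onto plate. Colony diameter compared with untreated plate, % mycelial growth inhibition = 100(dc−dt)/dc, scored in 5 grades.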
# [2] = tested on: Fusarium graminearum; assay: microbe, parasite or virus in culture; details: for inhibition at 5 µg/mL / inhibition at 50 µg/mL: Fusarium graminearum
# [3] = tested on: Ustilago nuda; assay: Plate medium fungicidal assay, barley loose smut U.n (Experimental Example 5); details: for inhibition at 5 µg/mL / inhibition at 50 µg/mL: Ustilago nuda
# In short: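 Compounds in DMSO were mixed into molten PDA to give plates at 50 mg/L and 5 mg/L, then inoculated with a 4 mm mycelial plug. Colony diameter was compared with untreated plates as % inhibition = 100(dc−dt)/dc, scored on a 5-grade scale.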
# [4] = tested on: Giberella fujikuroi; assay: Plate medium fungicidal assay, rice bakanae disease G.f (Experimental Example 5)
# In short: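 Gibberella fujikuroi mycelial plugs (4 mm) placed on PDA plates containing compound at 50 mg/L and 5 mg/L, added from DMSO solution. Colony diameter compared with untreated plates as % inhibition = 100(dc−dt)/dc, then scored in 5 grades.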
# [5] = tested on: Sclerotinia sclerotiorum; assay: Plate medium fungicidal assay, Sclerotinia rot S.s (Experimental Example 5); details: for inhibition at 5 µg/mL / inhibition at 50 µg/mL: Sclerotinia sclerotiorum
# In short: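 A 4 mm mycelial plug was placed on PDA plates containing compound at 50 mg/L and 5 mg/L, added from DMSO solution. Colony diameters were compared with untreated plates, % mycelial growth inhibition was R=100(dc−dt)/dc, and scores fell into 5 grades.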
# [6] = tested on: Botritis cinerea; assay: Plate medium fungicidal assay, gray mold B.c (Experimental Example 5)
# In short: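 Compounds in DMSO were incorporated into PDA plate medium at 50 mg/L and 5 mg/L, then inoculated with 4 mm mycelial plugs of Botrytis cinerea. Colony diameter versus untreated plates gave % mycelial growth inhibition, R=100(dc−dt)/dc, scored on a 5-grade scale.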
# [7] = read-out: growth inhibition grade F.g
# [8] = plate medium containing compound at 5 mg/L
# [9] = plate medium containing compound at 50 mg/L
# [10] = read-out: Growth inhibition grade, F.g
SMILES,"Growth inhibition grade, P.n [1, 8]","Growth inhibition grade, P.n [1, 9]","Growth inhibition grade, F.g [2, 8]","Growth inhibition grade, F.g [2, 9]","Growth inhibition grade, U.n [3, 8]","Growth inhibition grade, U.n [3, 9]","Growth inhibition grade, G.f [4, 8]","Growth inhibition grade, G.f [4, 9]","Growth inhibition grade, S.s [5, 8]","Growth inhibition grade, S.s [5, 9]","Growth inhibition grade, B.c [6, 8]","Growth inhibition grade, B.c [6, 9]",also measured
"C[C@@]1(CCCl)CC[C@@H](Cc2ccc(Cl)cc2)[C@]1(O)Cn1cncn1 (racemic) [Compound I-104, (1RS,2SR,5SR)-5-(4-chlorobenzyl)-2-(2-chloroethyl)-2-methyl-1-(1H-1,2,4-triazol-1-ylmethyl)cyclopentanol]",–,–,–,–,–,–,–,–,–,–,–,–,"inhibition at 5 µg/mL ([1]; plate medium, 5 mg/L, read-out: growth inhibition grade P.n): > 80%; inhibition at 50 µg/mL ([1]; plate medium, 50 mg/L, read-out: growth inhibition grade P.n): > 80%; inhibition at 5 µg/mL [2, 7]: > 80%; inhibition at 50 µg/mL [2, 7]: > 80%; inhibition at 5 µg/mL ([3]; plate medium, 5 mg/L, read-out: growth inhibition grade U.n): > 80%; inhibition at 50 µg/mL ([3]; plate medium, 50 mg/L, read-out: growth inhibition grade U.n): > 80%; inhibition at 5 µg/mL ([4]; plate medium, 5 mg/L, read-out: growth inhibition grade G.f): > 80%; inhibition at 50 µg/mL ([4]; plate medium, 50 mg/L, read-out: growth inhibition grade G.f): > 80%; inhibition at 5 µg/mL ([5]; plate medium, 5 mg/L, read-out: growth inhibition grade S.s): > 80%; inhibition at 50 µg/mL ([5]; plate medium, 50 mg/L, read-out: growth inhibition grade S.s): > 80%; inhibition at 5 µg/mL ([6]; plate medium, 5 mg/L, read-out: growth inhibition grade B.c): > 80%; inhibition at 50 µg/mL ([6]; plate medium, 50 mg/L, read-out: growth inhibition grade B.c): > 80%"
C[C@]1(CCl)CC[C@@H](Cc2ccc(-c3ccccc3)cc2)[C@]1(O)Cn1cncn1 (relative stereo) [Compound I-82],5 (% Mycerial growth inhibition of 80% or higher),5 (% Mycerial growth inhibition of 80% or higher),5 (% Mycerial growth inhibition of 80% or higher),5 (% Mycerial growth inhibition of 80% or higher),5 (% Mycerial growth inhibition of 80% or higher),5 (% Mycerial growth inhibition of 80% or higher),5 (% Mycerial growth inhibition of 80% or higher),5 (% Mycerial growth inhibition of 80% or higher),5 (% Mycerial growth inhibition of 80% or higher),5 (% Mycerial growth inhibition of 80% or higher),5 (% Mycerial growth inhibition of 80% or higher),5 (% Mycerial growth inhibition of 80% or higher),–
"O[C@]1(Cn2cncn2)[C@H](Cc2ccc(Cl)cc2)CC[C@@H]1C(F)(F)F (racemic) [Compound I-65, (1RS,2SR,5SR)-5-(4-chlorobenzyl)-2-trifluoromethyl-1-(1H-1,2,4-triazol-1-ylmethyl)cyclopentanol]",–,–,–,–,–,–,–,–,–,–,–,–,"inhibition at 5 µg/mL ([1]; plate medium containing compound at 5 mg/L, read-out: Growth inhibition grade, P.n): 60 to 80%; inhibition at 50 µg/mL ([1]; plate medium containing compound at 50 mg/L, read-out: Growth inhibition grade, P.n): > 80%; inhibition at 5 µg/mL [2, 10]: 60 to 80%; inhibition at 50 µg/mL [2, 10]: > 80%; inhibition at 5 µg/mL ([3]; plate medium containing compound at 5 mg/L, read-out: Growth inhibition grade, U.n): 40 to 60%; inhibition at 50 µg/mL ([3]; plate medium containing compound at 50 mg/L, read-out: Growth inhibition grade, U.n): > 80%; inhibition at 5 µg/mL ([4]; plate medium containing compound at 5 mg/L, read-out: Growth inhibition grade, G.f): 60 to 80%; inhibition at 50 µg/mL ([4]; plate medium containing compound at 50 mg/L, read-out: Growth inhibition grade, G.f): > 80%; inhibition at 5 µg/mL ([5]; plate medium containing compound at 5 mg/L, read-out: Growth inhibition grade, S.s): 40 to 60%; inhibition at 50 µg/mL ([5]; plate medium containing compound at 50 mg/L, read-out: Growth inhibition grade, S.s): > 80%; inhibition at 5 µg/mL ([6]; plate medium containing compound at 5 mg/L, read-out: Growth inhibition grade, B.c): 60 to 80%; inhibition at 50 µg/mL ([6]; plate medium containing compound at 50 mg/L, read-out: Growth inhibition grade, B.c): > 80%"
Cc1ccc(C[C@@H]2CC[C@](C)(CCl)[C@@]2(O)Cn2cncn2)cc1 (relative stereo) [Compound I-80],5 (% Mycerial growth inhibition of 80% or higher),5 (% Mycerial growth inhibition of 80% or higher),5 (% Mycerial growth inhibition of 80% or higher),5 (% Mycerial growth inhibition of 80% or higher),5 (% Mycerial growth inhibition of 80% or higher),5 (% Mycerial growth inhibition of 80% or higher),5 (% Mycerial growth inhibition of 80% or higher),5 (% Mycerial growth inhibition of 80% or higher),5 (% Mycerial growth inhibition of 80% or higher),5 (% Mycerial growth inhibition of 80% or higher),5 (% Mycerial growth inhibition of 80% or higher),5 (% Mycerial growth inhibition of 80% or higher),–
